Like-named read-outs stand apart in the source and are kept apart here.
Assays:
human CB2 receptors = molecular target: T1, human CB2 receptors (Homo sapiens, UniProt P34972); assay: functional cAMP assay, human CB2; format: cell-based; conditions: CHO cells expressing human CB2, cAMP; read-out: human CB2 EC50
T1 construct: expressed in transfected cells; host or cells: CHO cells
Experimental: (§1) CHO cells expressing human CB1 or CB2 receptors are seeded 17-24 hours prior to the experiment 50.000 cells per well in a black 96 well plate with flat clear bottom (Corning Costar #3904) in DMEM (Invitrogen No. 31331), 1×HT supplement, with 10% fetal calf serum and incubated at 5% CO2 and 37° C. in a humidified incubator. The growth medium was exchanged with Krebs Ringer Bicarbonate buffer with 1 mM IBMX and incubated at 30° C. for 30 min. Compounds were added to a final assay volume of 100 μl and incubated for 30 min at 30° C. Using the cAMP-Nano-TRF detection kit the assay (Roche Diagnostics) was stopped by the addition of 50 μl lysis reagent (Tris, NaCl, 1.5% Triton X100, 2.5% NP40, 10% NaN3) and 50 μl detection solutions (20 μM mAb Alexa700-cAMP 1:1, and 48 μM Ruthenium-2-AHA-cAMP) and shaken for 2 h at room temperature. The time-resolved energy transfer is measured by a TRF reader (Evotec Technologies GmbH), equipped with a ND:YAG laser as excitation source. The plate is measured twice with the excitation at 355 nm and at the emission with a delay of 100 ns and a gate of 100 ns, total exposure time 10 s at 730 (bandwidth 30 nm) or 645 nm (bandwidth 75 nm), respectively. The FRET signal is calculated as follows: FRET=T730-Alexa730-P(T645-B645) with P=Ru730-B730/Ru645-B645, where T730 is the test well measured at 730 nM, T645 is the test well measured at 645 nm, B730 and B645 are the buffer controls at 730 nm and 645 nm, respectively. cAMP content is determined from the function of a standard curve spanning from 10 μM to 0.13 nM cAMP.
(§2) EC50 values were determined using Activity Base analysis (ID Business Solution, Limited). The EC50 values for a wide range of cannabinoid agonists generated from this assay were in agreement with the values published in the scientific literature.

human CB1 receptors = molecular target: T2, human CB1 receptors (Homo sapiens, UniProt P21554); assay: functional cAMP assay, human CB1; format: cell-based
T2 construct: expressed in transfected cells; host or cells: CHO cells
Experimental: as §1, §2

[1] = CHO cells expressing human CB1, cAMP, read-out: human CB1 EC50

T1 sequence (P34972 whole entry): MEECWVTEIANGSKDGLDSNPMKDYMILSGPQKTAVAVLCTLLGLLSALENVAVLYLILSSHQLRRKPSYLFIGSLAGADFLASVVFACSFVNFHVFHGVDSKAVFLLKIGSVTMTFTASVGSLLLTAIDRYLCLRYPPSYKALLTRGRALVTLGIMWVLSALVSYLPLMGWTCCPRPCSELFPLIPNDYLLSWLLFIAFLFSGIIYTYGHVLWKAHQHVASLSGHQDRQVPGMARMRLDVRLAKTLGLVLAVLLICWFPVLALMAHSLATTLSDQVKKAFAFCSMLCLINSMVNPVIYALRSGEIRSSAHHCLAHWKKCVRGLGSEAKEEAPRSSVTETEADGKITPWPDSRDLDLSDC
T2 sequence (P21554 whole entry): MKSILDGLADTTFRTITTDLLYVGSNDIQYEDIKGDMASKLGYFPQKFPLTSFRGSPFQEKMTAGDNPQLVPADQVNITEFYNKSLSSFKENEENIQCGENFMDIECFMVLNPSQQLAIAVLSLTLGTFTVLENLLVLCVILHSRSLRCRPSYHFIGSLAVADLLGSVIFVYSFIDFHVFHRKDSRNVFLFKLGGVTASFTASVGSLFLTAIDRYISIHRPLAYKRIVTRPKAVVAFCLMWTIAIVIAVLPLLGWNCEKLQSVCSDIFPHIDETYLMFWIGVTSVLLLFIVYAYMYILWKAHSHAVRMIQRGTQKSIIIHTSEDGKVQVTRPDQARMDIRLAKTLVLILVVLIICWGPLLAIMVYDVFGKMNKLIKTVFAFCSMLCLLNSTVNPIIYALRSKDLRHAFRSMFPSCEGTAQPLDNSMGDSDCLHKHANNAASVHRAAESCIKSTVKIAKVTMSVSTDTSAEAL

CC(C)(C)c1nc(OC2CCC2)c2nnn(Cc3ccccc3Cl)c2n1 [Example 205, 5-tert-Butyl-3-(2-chloro-benzyl)-7-cyclobutoxy-3H-[1,2,3]triazolo[4,5-d]pyrimidine]
EC50 (human CB2 receptors): 12.2 nM
EC50 (human CB1 receptors; [1]): > 10000 nM

Cc1nonc1Cn1nnc2c(N3CC[C@H](O)[C@@H]3CO)nc(C(C)(C)C)nc21 [Example 164, (2S,3S)-1-[5-tert-Butyl-3-(4-methyl-furazan-3-ylmethyl)-3H-[1,2,3]triazolo[4,5-d]pyrimidin-7-yl]-2-hydroxymethyl-pyrrolidin-3-ol]
EC50 (human CB2 receptors): 0.8 nM
EC50 (human CB1 receptors; [1]): > 10000 nM

CC(C)(C)c1nc(N2CCC(F)(F)C2)c2nnn(CCc3ccc(Cl)cc3)c2n1 [Example 105, 5-tert-Butyl-3-[2-(4-chloro-phenyl)-ethyl]-7-(3,3-difluoro-pyrrolidin-1-yl)-3H-[1,2,3]triazolo[4,5-d]pyrimidine]
EC50 (human CB2 receptors): 6.5 nM
EC50 (human CB1 receptors; [1]): > 10000 nM

CC(C)(C)c1nc(N2CCOCC2(C)C)c2nnn(Cc3ccccc3Cl)c2n1 [Example 24, 5-tert-Butyl-3-(2-chloro-benzyl)-7-(3,3-dimethyl-morpholin-4-yl)-3H-[1,2,3]triazolo[4,5-d]pyrimidine]
EC50 (human CB2 receptors): 3 nM
EC50 (human CB1 receptors; [1]): 476 nM

CC(C)(C)c1nc(N2CCOCC2)c2nn[nH]c2n1 [Example 58]
EC50 (human CB2 receptors): 337 nM
EC50 (human CB1 receptors; [1]): > 10000 nM

CC(C)(C)c1nc(N2CC[C@H](O)C2)c2nnn(Cc3cccc(Cl)c3Cl)c2n1 [Example 141, (S)-1-[5-tert-Butyl-3-(2,3-dichloro-benzyl)-3H-[1,2,3]triazolo[4,5-d]pyrimidin-7-yl]-pyrrolidin-3-ol]
EC50 (human CB2 receptors): 0.5 nM
EC50 (human CB1 receptors; [1]): > 10000 nM

CC(C)(C)c1nc(N2CC[C@H](F)C2)c2nnn(Cc3ccccc3Cl)c2n1 [Example 36, 5-tert-Butyl-3-(2-chloro-benzyl)-7-((S)-3-fluoro-pyrrolidin-1-yl)-3H-[1,2,3]triazolo[4,5-d]pyrimidine]
EC50 (human CB2 receptors): 0.6 nM
EC50 (human CB1 receptors; [1]): 432 nM

Cc1cc(Cn2nnc3c(N4CC[C@H](O)C4)nc(C(C)(C)C)nc32)n(C)n1 [Example 155, (S)-1-[5-tert-Butyl-3-(2,5-dimethyl-2H-pyrazol-3-ylmethyl)-3H-[1,2,3]triazolo[4,5-d]pyrimidin-7-yl]-pyrrolidin-3-ol]
EC50 (human CB2 receptors): 3 nM
EC50 (human CB1 receptors; [1]): > 10000 nM

Cn1nccc1C1CCCN1c1nc(C(C)(C)C)nc2c1nnn2Cc1ccccc1Cl (stereo not drawn) [Example 201, 5-tert-Butyl-3-(2-chloro-benzyl)-7-[2-(2-methyl-2H-pyrazol-3-yl)-pyrrolidin-1-yl]-3H-[1,2,3]triazolo[4,5-d]pyrimidine]
EC50 (human CB2 receptors): 65.7 nM
EC50 (human CB1 receptors; [1]): > 10000 nM

Cn1nncc1Cn1nnc2c(N3CC4(COC4)C3)nc(C(C)(C)C)nc21 [Example 185, 5-tert-Butyl-3-(3-methyl-3H-[1,2,3]triazol-4-ylmethyl)-7-(2-oxa-6-aza-spiro[3.3]hept-6-yl)-3H-[1,2,3]triazolo[4,5-d]pyrimidine]
EC50 (human CB2 receptors): 26.8 nM
EC50 (human CB1 receptors; [1]): > 10000 nM

Cc1nonc1Cn1nnc2c(N3CCC(F)(F)C3)nc(C(C)(C)C)nc21 [Example 101, 5-tert-Butyl-7-(3,3-difluoro-pyrrolidin-1-yl)-3-(4-methyl-furazan-3-ylmethyl)-3H-[1,2,3]triazolo[4,5-d]pyrimidine]
EC50 (human CB2 receptors): 0.1 nM
EC50 (human CB1 receptors; [1]): > 10000 nM

C[C@H](c1ccccc1Cl)n1nnc2c(N3CCC(F)(F)C3)nc(C(C)(C)C)nc21 [Example 86]
EC50 (human CB2 receptors): 0.4 nM
EC50 (human CB1 receptors; [1]): 371 nM

CC(C)(C)c1nc(N2CC(F)(F)C2)c2nnn(Cc3ccccc3Cl)c2n1 [Example 12, 5-tert-Butyl-3-(2-chloro-benzyl)-7-(3,3-difluoro-azetidin-1-yl)-3H-[1,2,3]triazolo[4,5-d]pyrimidine]
EC50 (human CB2 receptors): 1.6 nM
EC50 (human CB1 receptors; [1]): 1110 nM

CC(C)(C)c1nc(N2CCC(F)(F)C2)c2nnn(Cc3cc(F)ccc3Cl)c2n1 [Example 90, 5-tert-Butyl-3-(2-chloro-5-fluoro-benzyl)-7-(3,3-difluoro-pyrrolidin-1-yl)-3H-[1,2,3]triazolo[4,5-d]pyrimidine]
EC50 (human CB2 receptors): 0.5 nM
EC50 (human CB1 receptors; [1]): 370 nM

CC(C)(C)c1nc(N2CCCCC2)c2nnn(Cc3ccccc3Cl)c2n1 [Example 2, 5-tert-Butyl-3-(2-chloro-benzyl)-7-piperidin-1-yl-3H-[1,2,3]triazolo[4,5-d]pyrimidine]
EC50 (human CB2 receptors): 1.6 nM
EC50 (human CB1 receptors; [1]): 555 nM

CC1(O)CCN(c2nc(C(C)(C)C)nc3c2nnn3Cc2ccccc2Cl)C1 (stereo not drawn) [Example 54, 1-[5-tert-Butyl-3-(2-chloro-benzyl)-3H-[1,2,3]triazolo[4,5-d]pyrimidin-7-yl]-3-methyl-pyrrolidin-3-ol]
EC50 (human CB2 receptors): 2.8 nM
EC50 (human CB1 receptors; [1]): > 10000 nM

CC(C)(C)c1nc(N2CC[C@H](O)C2)c2nnn(Cc3nccc(Cl)c3Cl)c2n1 [Example 148, (S)-1-[5-tert-Butyl-3-(3,4-dichloro-pyridin-2-ylmethyl)-3H-[1,2,3]triazolo[4,5-d]pyrimidin-7-yl]-pyrrolidin-3-ol]
EC50 (human CB2 receptors): 0.4 nM
EC50 (human CB1 receptors; [1]): > 10000 nM

CC(C)(C)c1nc(N2CCC(F)(F)C2)c2nnn(Cc3ccc(F)cc3Cl)c2n1 [Example 71, 5-tert-Butyl-3-(2-chloro-4-fluoro-benzyl)-7-(3,3-difluoro-pyrrolidin-1-yl)-3H-[1,2,3]triazolo[4,5-d]pyrimidine]
EC50 (human CB2 receptors): 0.4 nM
EC50 (human CB1 receptors; [1]): > 10000 nM

CC1COCCN1c1nc(C(C)(C)C)nc2c1nnn2Cc1ccccc1Cl (stereo not drawn) [Example 17, 5-tert-Butyl-3-(2-chloro-benzyl)-7-(3-methyl-morpholin-4-yl)-3H-[1,2,3]triazolo[4,5-d]pyrimidine]
EC50 (human CB2 receptors): 8.7 nM
EC50 (human CB1 receptors; [1]): > 10000 nM

Cn1nnnc1Cn1nnc2c(N3CC[C@@](C)(O)C3)nc(C(C)(C)C)nc21 [Example 227-b, (R)-1-(5-tert-butyl-3-((1-methyl-1H-tetrazol-5-yl)methyl)-3H-[1,2,3]triazolo[4,5-d]pyrimidin-7-yl)-3-methylpyrrolidin-3-ol]
EC50 (human CB2 receptors): 43.5 nM
EC50 (human CB1 receptors; [1]): > 10000 nM

Cc1nnc(Cn2nnc3c(N4CC5(COC5)C4)nc(C(C)(C)C)nc32)n1C [Example 184, 5-tert-Butyl-3-(4,5-dimethyl-4H-[1,2,4]triazol-3-ylmethyl)-7-(2-oxa-6-aza-spiro[3.3]hept-6-yl)-3H-[1,2,3]triazolo[4,5-d]pyrimidine]
EC50 (human CB2 receptors): 112 nM
EC50 (human CB1 receptors): > 10000 nM

CC(C)(C)c1nc(N2CCC(F)(F)C2)c2nnn(CC(=O)c3ccccc3Cl)c2n1 [Example 110, 2-[5-tert-Butyl-7-(3,3-difluoro-pyrrolidin-1-yl)-[1,2,3]triazolo[4,5-d]pyrimidin-3-yl]-1-(2-chloro-phenyl)-ethanone]
EC50 (human CB2 receptors): 0.2 nM
EC50 (human CB1 receptors; [1]): 250 nM

Cc1noc(Cn2nnc3c(N4CC[C@](C)(O)C4)nc(C(C)(C)C)nc32)n1 [Example 226-a, (S)-1-(5-tert-butyl-3-((3-methyl-1,2,4-oxadiazol-5-yl)methyl)-3H-[1,2,3]triazolo[4,5-d]pyrimidin-7-yl)-3-methylpyrrolidin-3-ol]
EC50 (human CB2 receptors): 57 nM
EC50 (human CB1 receptors; [1]): > 10000 nM

CC(C)(C)c1nc(N2CC[C@H](O)[C@@H]2CO)c2nnn(Cc3ncccc3Cl)c2n1 [Example 167, (2S,3S)-1-[5-tert-Butyl-3-(3-chloro-pyridin-2-ylmethyl)-3H-[1,2,3]triazolo[4,5-d]pyrimidin-7-yl]-2-hydroxymethyl-pyrrolidin-3-ol]
EC50 (human CB2 receptors): 3.8 nM
EC50 (human CB1 receptors; [1]): > 10000 nM

Cc1nonc1Cn1nnc2c(N3CC[C@@](C)(O)C3)nc(C(C)(C)C)nc21 [Example 228-b, (R)-1-(5-tert-butyl-3-((4-methyl-1,2,5-oxadiazol-3-yl)methyl)-3H-[1,2,3]triazolo[4,5-d]pyrimidin-7-yl)-3-methylpyrrolidin-3-ol]
EC50 (human CB2 receptors): 3.3 nM
EC50 (human CB1 receptors; [1]): > 10000 nM

CC(C)(C)c1nc(N2CCC(F)(F)C2)c2nnn(C3COC3)c2n1 [Example 91, 5-tert-Butyl-7-(3,3-difluoro-pyrrolidin-1-yl)-3-oxetan-3-yl-3H-[1,2,3]triazolo[4,5-d]pyrimidine]
EC50 (human CB2 receptors): 0.3 nM

CC(C)(C)c1nc(N2C[C@@H](O)C(F)(F)C2)c2nnn(Cc3ccccc3Cl)c2n1 [Example 95, (R)-1-[5-tert-Butyl-3-(2-chloro-benzyl)-3H-[1,2,3]triazolo[4,5-d]pyrimidin-7-yl]-4,4-difluoro-pyrrolidin-3-ol]
EC50 (human CB2 receptors): 1.5 nM

CC(C)(C)c1nc(N2CCC(F)(F)C2)c2nnn(C(=O)c3ccccc3Cl)c2n1 [Example 92, [5-tert-Butyl-7-(3,3-difluoro-pyrrolidin-1-yl)-[1,2,3]triazolo[4,5-d]pyrimidin-3-yl]-(2-chloro-phenyl)-methanone]
EC50 (human CB2 receptors): 350 nM

CC(C)(C)c1nc(N2CCC(F)(F)C2)c2nnn(S(=O)(=O)c3ccccc3Cl)c2n1 [Example 107, 5-tert-Butyl-3-(2-chloro-benzenesulfonyl)-7-(3,3-difluoro-pyrrolidin-1-yl)-3H-[1,2,3]triazolo[4,5-d]pyrimidine]
EC50 (human CB2 receptors): 284 nM

Reference: patent US8741906B2 (priority 2011, dated 2014)
